In patent publication US4727080A, “1-substituted derivatives of 6-fluoro-7-(pyrrol-1-yl)-1,4-dihydro-4-oxoquinoline-3-carboxylic acid, their preparation and their application as drugs” (Provesan S.A., priority 1984, dated 1988):
In brackets after ≈: the same amount, converted by molar mass. Like-named read-outs stand apart in the source and are kept apart here.

Experiments:
[1] = test system: Salmonella typhimurium AMES 98; test: "In vitro" MIC, Salmonella typhimurium AMES 98; assay type: cell-based; details: Salmonella enterica, read-out: "In vitro" MIC
Protocol: (§1) Antimicrobial pharmacological activity (G. L. Daquet and Y. A. Chabbect, Techniques en bacteriologie (Techniques in bacteriology), vol. 3, Flammarion Medecine-Sciences, Paris, 1972, and W. B. Hugo and A. D. Rusell, Pharmaceutical Microbiology, Blackwell Scientific Publications, London (1977).
Salmonella typhimurium AMES 98
(§2) A streak culture of each of the microorganisms is formed in tubes of antibiotics agar no. 1 and incubated for 20 hours at 37° C. A culture loop is then taken and a culture is formed in a tryptone-soya broth and incubated for 20 hours at 37° C. The resulting culture is diluted to 1/4 with Ringer's physiological solution to give a standardized suspension of 10^5 ufc/ml for each organism.
(§3) Starting from a solution of 1000 μg/ml in 0.1N NaOH, each product is diluted successively in dextrose agar (melted beforehand and kept at 50° C.) to give the following concentrations: 64-32-16-8-4-2-1-0.5-0.25-0.125 μg of derivative/ml of medium.
(§4) After this, each concentration of each product is divided up into Petri dishes of 10 cm diameter at a rate of 10 ml of medium per dish and using as many dishes as there are microorganisms to be tested.
(§5) Once the medium has cooled, the dishes are treated with the inoculations at a rate of 0.4 ml of inoculation per dish. They are spread out with a Drigalski loop and the supernatant is collected. The inoculated dishes are incubated at 37° C. for 20 hours.

[2] = test system: Klebsiella pneumoniae ATCC 10031; test: "In vitro" MIC, Klebsiella pneumoniae; assay type: cell-based; details: read-out: "In vitro" MIC
Protocol: as §1
Klebsiella pneumoniae ATCC 10031
as §2, §3, §4, §5

Shigella flexnerii = test: "In vitro" MIC, Shigella flexnerii; assay type: cell-based; details: 20 h, read-out: "In vitro" MIC
Protocol: as §1, §2, §3, §4, §5

Escherichia coli R-1513 = test: "In vitro" MIC, Escherichia coli R-1513; assay type: cell-based; details: read-out: "In vitro" MIC
Protocol: as §1, §2, §3, §4, §5

Proteus morganii CHSP-16 = test: "In vitro" MIC, Proteus morganii; assay type: cell-based; details: Morganella morganii, read-out: "In vitro" MIC
Protocol: as §1, §2, §3, §4, §5

[3] = test system: Staphylococcus aureus ATCC 5488/23; test: "In vitro" MIC, Staphylococcus aureus ATCC 5488/23; assay type: cell-based; details: read-out: "In vitro" MIC
Protocol: as §1
Staphylococcus aureus ATCC 5488/23
as §2, §3, §4, §5

Sarcina lutea ATCC 9341 = test: "In vitro" MIC, Sarcina lutea; assay type: cell-based; details: Micrococcus luteus, read-out: "In vitro" MIC
Protocol: as §1, §2, §3, §4, §5

[4] = test system: Micrococcus flavus ATCC 10240; test: "In vitro" MIC, Micrococcus flavus; assay type: cell-based; details: read-out: "In vitro" MIC
Protocol: as §1
Micrococcus flavus ATTC 10240
as §2, §3, §4, §5

[5] = test system: Pseudomonas aeruginosa ADSA 47; test: "In vitro" MIC, Pseudomonas aeruginosa ADSA 47; assay type: cell-based; details: read-out: "In vitro" MIC
Protocol: as §1
Pseudomonas aeruginosa ADSA 47
as §2, §3, §4, §5

[6] = test system: Pseudomonas aeruginosa 25115; test: "In vitro" MIC, Pseudomonas aeruginosa 25115; assay type: cell-based; details: read-out: "In vitro" MIC
Protocol: as §1
Pseudomonas aeruginosa 25115
as §2, §3, §4, §5

[7] = test system: Bacillus subtilis ATCC 6633; test: "In vitro" MIC, Bacillus subtilis; assay type: cell-based; details: read-out: "In vitro" MIC
Protocol: as §1
Bacillus subtilis ATCC 6633
as §2, §3, §4, §5

[8] = test system: Citrobacter freundii ATCC 11606; test: "In vitro" MIC, Citrobacter freundii; assay type: cell-based; details: read-out: "In vitro" MIC
Protocol: as §1
Citrobacter freundii ATCC 11606
as §2, §3, §4, §5

[9] = test system: Escherichia coli ATCC 10536; test: "In vitro" MIC, Escherichia coli ATCC 10536; assay type: cell-based; details: read-out: "In vitro" MIC
Protocol: as §1
Escherichia coli ATCC 10536
as §2, §3, §4, §5

[10] = test system: Staphylococcus aureus ATCC 25178; test: "In vitro" MIC, Staphylococcus aureus ATCC 25178; assay type: cell-based; details: read-out: "In vitro" MIC
Protocol: as §1
Staphylococcus aureus ATCC 25178
as §2, §3, §4, §5

[11] = test system: Serratia marcescens ATTC 13880; test: "In vitro" MIC, Serratia marcescens; assay type: cell-based; details: read-out: "In vitro" MIC
Protocol: as §1
Serratia marcescens ATTC 13880
as §2, §3, §4, §5

[12] = test system: Enterobacter aerogenes ATCC 15038; test: "In vitro" MIC, Enterobacter aerogenes; assay type: cell-based; details: Klebsiella aerogenes, read-out: "In vitro" MIC
Protocol: as §1
Enterobacter aerogenes ATCC 15038
as §2, §3, §4, §5

[13] = test system: Enterobacter cloacae CHSP-20; test: "In vitro" MIC, Enterobacter cloacae; assay type: cell-based; details: read-out: "In vitro" MIC
Protocol: as §1
Enterobacter cloacae CHSP-20
as §2, §3, §4, §5

[14] = test system: Streptococcus faecalis ATCC 10541; test: "In vitro" MIC, Streptococcus faecalis; assay type: cell-based; details: Enterococcus faecalis, read-out: "In vitro" MIC
Protocol: as §1
Streptococcus faecalis ATCC 10541
as §2, §3, §4, §5

[15] = test system: Salmonella typhimurium AMES 100; test: "In vitro" MIC, Salmonella typhimurium AMES 100; assay type: cell-based; details: Salmonella enterica, read-out: "In vitro" MIC
Protocol: as §1
Salmonella typhimurium AMES 100
as §2, §3, §4, §5

[16] = test system: Proteus mirabilis ATCC 4675; test: "In vitro" MIC, Proteus mirabilis; assay type: cell-based; details: read-out: "In vitro" MIC
Protocol: as §1
Proteus mirabilis ATCC 4675
as §2, §3, §4, §5

Gram-positive cocci = test: "In vitro" antimicrobial activity compared with nalidixic acid, Gram-positive cocci; assay type: cell-based
Protocol: as §1, §2, §3, §4, §5

[17] = test system: Enterobacteriaceae (Pseudomonas aeruginosa); test: "In vitro" antimicrobial activity compared with nalidixic acid, Enterobacteriaceae (Pseudomonas aeruginosa); assay type: cell-based
Protocol: as §1, §2, §3, §4, §5

Acute toxicity to mice = details: mouse, in vivo, ip, suspension in 5% gum arabic, mortality over 7 days
Protocol: The experimental animals used to determine this toxicity were albino mice of the C.F.L.P. strain and of both sexes, weighing between 19 and 25 grams. After an 18-hour fasting period with water "ad libitum", the derivatives forming the subject of the present invention are administered intraperitoneally as a suspension in 5% gum arabic. The volume of suspension administered was 0.4 ml/20 grams (20 ml/kg) in all cases, the concentration of the suspension being changed according to the dose administered.
One hour after administration of the derivatives, the animals are given a standard Panlab rat-mouse food. The mortality was observed over a period of 7 days. Differences in mortality between the sexes were not observed with any of the products.

CCn1cc(C(=O)O)c(=O)c2ccc(C)nc21 [Nalidixic acid, reference compound]
MIC ([1]; TYPHIMURIUM, 20 h): 0.5 µg/mL (≈ 2.15 µM)
MIC ([2]; Klebsiella pneumoniae, ATCC10031, 20 h): 1 µg/mL (≈ 4.31 µM)
MIC (Shigella flexnerii): 2 µg/mL (≈ 8.61 µM)
MIC (Escherichia coli R-1513; Escherichia coli, R1513, 20 h): 4 µg/mL (≈ 17.2 µM)
MIC (Proteus morganii CHSP-16; CHSP16, 20 h): 1 µg/mL (≈ 4.31 µM)
MIC ([3]; Staphylococcus aureus, ATCC5488, 20 h): 32 µg/mL (≈ 138 µM)
MIC (Sarcina lutea ATCC 9341; ATCC9341, 20 h): 128 µg/mL (≈ 551 µM)
MIC ([4]; Micrococcus flavus, ATCC10240, 20 h): 128 µg/mL (≈ 551 µM)
MIC ([5]; Pseudomonas aeruginosa, ADSA47, 20 h): ≥ 128 µg/mL
MIC ([6]; Pseudomonas aeruginosa, 25115, 20 h): ≥ 128 µg/mL
MIC ([7]; Bacillus subtilis, ATCC6633, 20 h): 1 µg/mL (≈ 4.31 µM)
MIC ([8]; Citrobacter freundii, ATCC11606, 20 h): 4 µg/mL (≈ 17.2 µM)
MIC ([9]; Escherichia coli, ATCC10536, 20 h): 0.25 µg/mL (≈ 1.08 µM)
MIC ([10]; Staphylococcus aureus, ATCC25178, 20 h): ≥ 64 µg/mL
MIC ([11]; Serratia marcescens, ATTC13880, 20 h): 1 µg/mL (≈ 4.31 µM)
MIC ([12]; ATCC15038, 20 h): 4 µg/mL (≈ 17.2 µM)
MIC ([13]; Enterobacter cloacae, CHSP20, 20 h): 4 µg/mL (≈ 17.2 µM)
MIC ([14]; ATCC10541, 20 h): ≥ 64 µg/mL
MIC ([15]; TYPHIMURIUM, 20 h): 0.5 µg/mL (≈ 2.15 µM)
MIC ([16]; Proteus mirabilis, ATCC4675, 20 h): 8 µg/mL (≈ 34.4 µM)

C=Cn1cc(C(=O)O)c(=O)c2cc(F)c(-n3cccc3)cc21 [Example 3, 6-fluoro-7-(pyrrol-1-yl)-1-vinyl-4-oxo-1,4-dihydroquinoline-3-carboxylic acid]
"in vitro" activity compared with nalidixic acid (Gram-positive cocci): greater "in vitro" activity than nalidixic acid
MIC ([1]; Salmonella typhimurium AMES 98, dextrose agar, 37° C., 20 hours): ≤ 0.062 µg/mL
MIC ([2]; ATCC10031, Klebsiella pneumoniae ATCC 10031, dextrose agar, 37° C., 20 hours): 0.5 µg/mL (≈ 1.68 µM)
MIC (Shigella flexnerii): 1 µg/mL (≈ 3.35 µM)
MIC (Escherichia coli R-1513; R1513, Escherichia coli R-1513, dextrose agar, 37° C., 20 hours): 1 µg/mL (≈ 3.35 µM)
"in vitro" activity compared with nalidixic acid [17]: greater "in vitro" activity than nalidixic acid
MIC (Proteus morganii CHSP-16; CHSP16, Proteus morganii CHSP-16, dextrose agar, 37° C., 20 hours): 2 µg/mL (≈ 6.71 µM)
MIC ([3]; ATCC5488, Staphylococcus aureus ATCC 5488/23, dextrose agar, 37° C., 20 hours): 0.5 µg/mL (≈ 1.68 µM)
MIC (Sarcina lutea ATCC 9341; ATCC9341, Sarcina lutea ATCC 9341, dextrose agar, 37° C., 20 hours): 8 µg/mL (≈ 26.8 µM)
MIC ([4]; ATCC10240, Micrococcus flavus ATCC 10240, dextrose agar, 37° C., 20 hours): 4 µg/mL (≈ 13.4 µM)
MIC ([5]; ADSA47, Pseudomonas aeruginosa ADSA 47, dextrose agar, 37° C., 20 hours): 8 µg/mL (≈ 26.8 µM)
LD50 at 168 h (Acute toxicity to mice): > 1600 mg/kg
MIC ([6]; Pseudomonas aeruginosa 25115, dextrose agar, 37° C., 20 hours): 4 µg/mL (≈ 13.4 µM)
MIC ([7]; ATCC6633, Bacillus subtilis ATCC 6633, dextrose agar, 37° C., 20 hours): ≤ 0.062 µg/mL
MIC ([8]; ATCC11606, Citrobacter freundii ATCC 11606, dextrose agar, 37° C., 20 hours): 1 µg/mL (≈ 3.35 µM)
MIC ([9]; ATCC10536, Escherichia coli ATCC 10536, dextrose agar, 37° C., 20 hours): 0.125 µg/mL (≈ 0.419 µM)
MIC ([10]; ATCC25178, Staphylococcus aureus ATCC 25178, dextrose agar, 37° C., 20 hours): 0.5 µg/mL (≈ 1.68 µM)
MIC ([11]; ATTC13880, Serratia marcescens ATTC 13880, dextrose agar, 37° C., 20 hours): 1 µg/mL (≈ 3.35 µM)
MIC ([12]; ATCC15038, Enterobacter aerogenes ATCC 15038, dextrose agar, 37° C., 20 hours): 1 µg/mL (≈ 3.35 µM)
MIC ([13]; CHSP20, Enterobacter cloacae CHSP-20, dextrose agar, 37° C., 20 hours): 1 µg/mL (≈ 3.35 µM)
MIC ([14]; ATCC10541, Streptococcus faecalis ATCC 10541, dextrose agar, 37° C., 20 hours): 16 µg/mL (≈ 53.6 µM)
MIC ([15]; Salmonella typhimurium AMES 100, dextrose agar, 37° C., 20 hours): 0.5 µg/mL (≈ 1.68 µM)
MIC ([16]; ATCC4675, Proteus mirabilis ATCC 4675, dextrose agar, 37° C., 20 hours): 2 µg/mL (≈ 6.71 µM)
